The test relates to Escherichia coli. The experiment in a line: E. coli intramammary challenge in lactating dairy cows, CATH2 and analogs, Example 2. In kind it is in vivo, Holstein cows. Particulars: for overall protection against mastitis following IMM challenge with E. coli / intramammary infection observed / animals meeting criteria for clinical mastitis: 50 mg/10 mL; for intramammary infection observed: 4 treatments prior to challenge, vehicle 100%; for animals meeting criteria for clinical mastitis: 4 treatments twice daily for 2 days prior to challenge, vehicle 100.0%, FIG. 9; for milk concentrations of BSA, milk haptoglobin, milk amyloid A, IL-1 beta, IL-6, IL-8, IL-10 and TNFα: FIGS. 13-20. From the text:
The objective of this study was to evaluate the efficacy of Cathelicidin-2 peptide analogs for reduction of incidence of clinical mastitis and severity of infection following Escherichia coli intramammary (IMM) infusion in lactating dairy cows. Healthy Holstein cows in their second or third lactation were selected based on culture negative results for mastitis pathogens and low somatic cell counts≤200,000. Enrolled animals were randomly assigned to treatment. Cows were commingled, housed and fed according to standard site procedures, and fitted with sensors to monitor activity. Cows were milked twice daily at regular intervals. The assigned treatment was administered following am and pm milkings starting 2 days prior to challenge. Four total treatments and the challenge were administered in the left front quarter. Treatment was administered twice daily for 2 days prior to challenge. The E. coli challenge material was administered to the treated quarter on the morning of Day 0 of study. The treatment regimen was designed to evaluate efficacy for prevention of the disease. All peptides were dosed at 50 mg/10 mL per dose. Milk samples were collected for analysis at 6-hour intervals on Day 0, and at each morning's milking from Day 1 through Day 7, and on Days 11 and 14.

Consider “RCGRFLRKIRPFRRKVTITCQ [Analog 2, CATH2 1-21 analog]”, for which the “overall protection against mastitis following IMM challenge with E. coli” value is on record as “Relatively limited protection against mastitis”; the intramammary infection observed is 94.74%; the “animals meeting criteria for clinical mastitis” value amounted to 95.74%; the “milk concentrations of BSA, milk haptoglobin, milk amyloid A, IL-1 beta, IL-6, IL-8, IL-10 and TNFα” value was “modulation on acute phase proteins and key cytokines”.
For the sequence “RFGRWLRKIRRYRGKVTITIQ [Analog 1, CATH2 1-21 analog]”, the “overall protection against mastitis following IMM challenge with E. coli” value is given as “Relatively limited protection against mastitis”; the intramammary infection observed is 94.74%; the “animals meeting criteria for clinical mastitis” value was 78.95%; the “milk concentrations of BSA, milk haptoglobin, milk amyloid A, IL-1 beta, IL-6, IL-8, IL-10 and TNFα” value is “modulation on acute phase proteins and key cytokines”.
